# Legend:
# mTORC2 [1] = target: T1, mTORC2 (Homo sapiens, UniProt P42345+Q6R327+Q9BPZ7+Q9BVC4); assay: Inhibition of mTORC2 in human PC-3 cells assessed as measuring phosphorylated Akt level incubated for 24 hrs by AlphaLISA assay; format: cell-based
# mTORC1 [2] = target: T2, mTORC1 (Homo sapiens, UniProt P42345+Q8N122+Q9BVC4); assay: Inhibition of mTORC1 in human PC-3 cells assessed as measuring phosphorylated S6K level incubated for 24 hrs by AlphaLISA assay; format: cell-based
# [3] = target: Phosphatidylinositol 4,5-bisphosphate 3-kinase catalytic subunit gamma isoform (Homo sapiens, UniProt P48736); assay: Inhibition of human PI3Kgamma preincubated for 15 mins followed by ATP addition measured after 1 hr by TR-FRET assay
# mTORC1 [4] = target: T2, mTORC1; assay: Inhibition of mTORC1 (unknown origin); format: protein-complex assay
# [5] = target: T3, Phosphatidylinositol 4,5-bisphosphate 3-kinase catalytic subunit delta isoform (Homo sapiens, UniProt O00329); assay: Inhibition of human PI3Kdelta preincubated for 15 mins followed by ATP addition measured after 1 hr by TR-FRET assay
# T3 sequence (O00329 whole entry): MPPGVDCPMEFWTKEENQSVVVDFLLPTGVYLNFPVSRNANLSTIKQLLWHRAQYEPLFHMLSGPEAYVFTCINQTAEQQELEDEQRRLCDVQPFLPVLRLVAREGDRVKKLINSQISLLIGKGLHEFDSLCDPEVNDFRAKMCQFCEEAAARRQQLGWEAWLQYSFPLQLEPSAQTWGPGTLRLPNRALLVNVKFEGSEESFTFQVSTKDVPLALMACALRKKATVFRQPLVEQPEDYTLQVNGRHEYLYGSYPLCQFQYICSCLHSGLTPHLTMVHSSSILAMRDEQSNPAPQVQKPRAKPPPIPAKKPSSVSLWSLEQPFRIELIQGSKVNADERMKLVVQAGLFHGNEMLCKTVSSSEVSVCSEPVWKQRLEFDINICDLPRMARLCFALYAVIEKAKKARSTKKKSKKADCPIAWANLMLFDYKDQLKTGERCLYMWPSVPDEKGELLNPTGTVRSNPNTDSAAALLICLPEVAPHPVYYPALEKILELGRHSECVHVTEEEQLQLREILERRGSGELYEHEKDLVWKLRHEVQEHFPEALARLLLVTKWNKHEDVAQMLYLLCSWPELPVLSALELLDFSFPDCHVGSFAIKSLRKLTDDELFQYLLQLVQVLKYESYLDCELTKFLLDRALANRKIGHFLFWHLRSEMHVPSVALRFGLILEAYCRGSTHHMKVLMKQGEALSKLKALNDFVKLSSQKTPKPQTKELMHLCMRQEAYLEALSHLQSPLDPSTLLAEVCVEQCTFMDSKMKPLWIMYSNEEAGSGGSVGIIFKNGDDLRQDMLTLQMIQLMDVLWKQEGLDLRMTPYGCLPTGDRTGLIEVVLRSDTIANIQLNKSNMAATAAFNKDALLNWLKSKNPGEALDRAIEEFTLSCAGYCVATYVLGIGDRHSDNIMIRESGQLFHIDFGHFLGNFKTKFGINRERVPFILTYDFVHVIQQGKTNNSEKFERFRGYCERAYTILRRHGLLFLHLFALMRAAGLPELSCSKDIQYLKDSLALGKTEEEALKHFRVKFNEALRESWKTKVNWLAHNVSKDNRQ
# [6] = target: Phosphatidylinositol 4,5-bisphosphate 3-kinase catalytic subunit alpha isoform (Homo sapiens, UniProt P42336); assay: Inhibition of human PI3Kalpha preincubated for 15 mins followed by ATP addition measured after 1 hr by TR-FRET assay
# [7] = Solubility of the compound in water; format: physicochemical
# A549 = assay: Antitumor activity against human A549 cells assessed as cell growth inhibition incubated for 72 hrs by Cell Titer-Glo assay; format: functional, cell-based; settings: A549, 72 h
# mTORC2 (Homo sapiens) = mTORC2 (Homo sapiens) (UniProt P42345+Q6R327+Q9BVC4+Q9BPZ7); assay: Inhibition of mTORC2 (unknown origin) assessed as measuring phosphorylated AKT at 0.5 uM relative to control; format: protein-complex assay
# mTORC1 [8] = target: T2, mTORC1; assay: Inhibition of mTORC1 (unknown origin) assessed as measuring phosphorylated p7OS6K level at 0.2 uM relative to control; format: protein-complex assay
# mTORC1 [9] = target: T2, mTORC1; assay: Inhibition of mTORC1 (unknown origin) assessed as measuring phosphorylated 4EBP1 level at 1 uM relative to control; format: protein-complex assay
# [10] = target: T4, Serine/threonine-protein kinase mTOR (Homo sapiens, UniProt P42345); assay: Inhibition of human mTOR assessed as measuring phosphorylated p70S6K level by TR-FRET assay
# mTORC2 [11] = target: T1, mTORC2; assay: Inhibition of mTORC2 (unknown origin); format: protein-complex assay
# [12] = target: T4, Serine/threonine-protein kinase mTOR; assay: Inhibition of mTOR (unknown origin)
# [13] = target: T4, Serine/threonine-protein kinase mTOR; assay: Inhibition of mTOR (unknown origin) assessed as residual activity at 30 nM relative to control; values are per cent of control
# DU-145 = assay: Antitumor activity against human DU-145 cells assessed as cell growth inhibition; format: functional, cell-based
# SF-268 = assay: Antitumor activity against human SF-268 cells assessed as cell growth inhibition; format: functional, cell-based
# PC-3 = assay: Antitumor activity against human PC-3 cells assessed as cell growth inhibition; format: functional, cell-based
# [14] = Antitumor activity against human U-87 MG cells assessed as cell growth inhibition; format: functional, cell-based, U-87MG ATCC
# Phosphatidylinositol 4,5-bisphosphate 3-kinase catalytic subunit gamma isoform, sequence (P48736 whole entry, canonical isoform): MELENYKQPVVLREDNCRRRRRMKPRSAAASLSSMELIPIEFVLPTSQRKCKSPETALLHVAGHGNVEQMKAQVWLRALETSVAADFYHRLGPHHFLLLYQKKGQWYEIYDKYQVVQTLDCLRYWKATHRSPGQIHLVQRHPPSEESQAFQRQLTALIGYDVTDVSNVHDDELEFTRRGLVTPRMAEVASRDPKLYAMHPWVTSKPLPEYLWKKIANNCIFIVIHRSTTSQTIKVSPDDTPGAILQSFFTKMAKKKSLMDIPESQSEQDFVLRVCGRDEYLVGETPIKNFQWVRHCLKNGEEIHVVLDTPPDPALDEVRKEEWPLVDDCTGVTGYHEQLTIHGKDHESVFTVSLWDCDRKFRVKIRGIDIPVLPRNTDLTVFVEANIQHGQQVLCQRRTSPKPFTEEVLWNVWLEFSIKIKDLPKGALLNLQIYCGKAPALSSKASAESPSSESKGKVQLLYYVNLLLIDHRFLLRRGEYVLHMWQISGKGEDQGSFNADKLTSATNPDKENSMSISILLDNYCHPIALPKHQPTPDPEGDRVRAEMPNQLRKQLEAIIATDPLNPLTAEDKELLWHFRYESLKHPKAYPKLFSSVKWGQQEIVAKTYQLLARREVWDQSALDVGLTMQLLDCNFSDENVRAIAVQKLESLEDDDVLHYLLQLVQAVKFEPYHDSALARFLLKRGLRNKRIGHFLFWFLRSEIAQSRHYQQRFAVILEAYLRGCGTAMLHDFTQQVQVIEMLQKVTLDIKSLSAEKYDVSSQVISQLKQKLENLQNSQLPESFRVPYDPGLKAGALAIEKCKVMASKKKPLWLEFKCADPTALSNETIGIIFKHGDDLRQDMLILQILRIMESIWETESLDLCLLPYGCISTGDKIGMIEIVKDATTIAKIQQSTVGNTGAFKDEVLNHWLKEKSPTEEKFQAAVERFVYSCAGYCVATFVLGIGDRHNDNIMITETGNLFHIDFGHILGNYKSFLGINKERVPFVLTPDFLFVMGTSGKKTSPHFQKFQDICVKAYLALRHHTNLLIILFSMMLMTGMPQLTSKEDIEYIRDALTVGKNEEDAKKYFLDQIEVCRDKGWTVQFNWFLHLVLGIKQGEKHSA
# Phosphatidylinositol 4,5-bisphosphate 3-kinase catalytic subunit alpha isoform, sequence (P42336 whole entry, canonical isoform): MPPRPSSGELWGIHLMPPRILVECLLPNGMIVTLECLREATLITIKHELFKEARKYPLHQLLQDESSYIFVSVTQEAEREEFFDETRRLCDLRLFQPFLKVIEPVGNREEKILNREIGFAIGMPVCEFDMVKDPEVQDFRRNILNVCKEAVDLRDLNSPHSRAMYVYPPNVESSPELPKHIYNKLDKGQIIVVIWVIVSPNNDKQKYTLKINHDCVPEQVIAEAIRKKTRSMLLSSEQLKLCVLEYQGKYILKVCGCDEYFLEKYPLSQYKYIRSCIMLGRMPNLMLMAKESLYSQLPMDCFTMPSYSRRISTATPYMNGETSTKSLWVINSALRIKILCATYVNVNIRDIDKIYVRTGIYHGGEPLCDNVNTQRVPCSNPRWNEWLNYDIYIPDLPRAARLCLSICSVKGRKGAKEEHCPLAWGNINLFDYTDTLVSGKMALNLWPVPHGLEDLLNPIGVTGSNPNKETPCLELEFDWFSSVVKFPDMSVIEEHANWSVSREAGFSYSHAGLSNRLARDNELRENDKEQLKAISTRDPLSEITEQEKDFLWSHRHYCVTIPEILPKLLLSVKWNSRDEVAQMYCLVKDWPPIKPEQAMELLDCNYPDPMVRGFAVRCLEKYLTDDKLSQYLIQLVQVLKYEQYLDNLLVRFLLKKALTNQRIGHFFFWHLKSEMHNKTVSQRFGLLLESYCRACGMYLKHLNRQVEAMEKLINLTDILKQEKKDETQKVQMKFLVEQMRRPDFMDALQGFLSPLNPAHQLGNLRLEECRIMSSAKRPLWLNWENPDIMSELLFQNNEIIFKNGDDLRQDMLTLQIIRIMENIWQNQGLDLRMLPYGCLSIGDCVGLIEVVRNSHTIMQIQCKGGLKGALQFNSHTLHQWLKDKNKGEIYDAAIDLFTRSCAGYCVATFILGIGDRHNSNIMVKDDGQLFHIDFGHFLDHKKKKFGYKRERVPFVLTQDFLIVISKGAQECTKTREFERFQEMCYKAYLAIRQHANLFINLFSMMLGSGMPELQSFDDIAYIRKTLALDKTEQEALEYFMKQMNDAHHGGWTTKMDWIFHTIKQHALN
smiles,measurement,setting,value
CO[C@@H]1C[C@H](C[C@@H](C)[C@@H]2CC(=O)[C@H](C)/C=C(\C)[C@@H](O)[C@@H](OC)C(=O)[C@H](C)C[C@H](C)/C=C/C=C/C=C(\C)C(OCCO)C[C@@H]3CC[C@@H](C)[C@@](O)(O3)C(=O)C(=O)N3CCCC[C@H]3C(=O)O2)CC[C@H]1OC(=O)NCCc1ccccc1 (stereo partly specified),IC50,mTORC2 [1],> 10 µM
same,IC50,mTORC1 [2],< 0.000316 µM
Nc1ncnc2c1c(-c1cc3cc(O)cc(Cl)c3[nH]1)nn2C1CCOCC1,IC50,[3],0.025 µM
same,IC50,mTORC1 [4],< 0.005 µM
same,IC50,[5],0.01 µM
same,IC50,[6],0.1 µM
CO[C@@H]1C[C@@H]2CC[C@@H](C)[C@@](O)(O2)C(=O)C(=O)N2CCCC[C@H]2C(=O)O[C@H]([C@H](C)C[C@@H]2CC[C@@H](O)[C@H](OC)C2)CC(=O)[C@H](C)/C=C(\C)[C@@H](OC(=O)C[n+]2csc(C)c2C)[C@@H](OC)C(=O)[C@H](C)C[C@H](C)/C=C/C=C/C=C/1C.[Br-],solubility,[7],10 mg/mL
same,IC50,A549,3.04 µM
CNC(=O)c1cccc(-c2ccc3c(N4CCOC[C@@H]4C)nc(N4CCO[C@@H]5CCC[C@@H]54)nc3n2)c1,inhibition,mTORC2 (Homo sapiens),89%
same,inhibition,mTORC1 [8],89.9%
same,inhibition,mTORC1 [9],62%
C[C@H]1COCCN1c1cc2nc(-c3cccc(CO)c3)ccc2c(N2CCOC[C@@H]2C)n1,IC50,[10],< 0.1 µM
CC(C)(O)c1ccc(-c2cnc3[nH]c(=O)n(CC4CCOCC4)c3n2)cn1,IC50,mTORC2 [11],2.41 µM
same,IC50,mTORC1 [4],0.176 µM
same,IC50,[12],2.55 µM
CC(C)(C#N)c1ccc(-n2c3c4cc(-c5ccc(NC(=O)CNC6CCCCC6)nc5)ccc4ncc3n3cnnc23)cc1,residual activity,[13],< 5%
CO[C@@H]1C[C@H](C[C@@H](C)[C@@H]2CC(=O)[C@H](C)/C=C(\C)[C@@H](O)[C@@H](OC)C(=O)[C@H](C)C[C@H](C)/C=C/C=C/C=C(\C)C(OCCO)C[C@@H]3CC[C@@H](C)[C@@](O)(O3)C(=O)C(=O)N3CCCC[C@H]3C(=O)O2)CC[C@H]1OCCCN1C[C@@H](C)O[C@@H](C)C1 (stereo partly specified),IC50,mTORC2 [1],> 10 µM
same,IC50,mTORC1 [2],< 0.000316 µM
C[C@H]1COCCN1c1cc(N2CCOC[C@@H]2C)c2ccc(-c3ccc(CNCCO)cc3)nc2n1,IC50,[10],< 0.1 µM
CC(=O)N1CCC(n2nc(-c3cc4cc(O)cc(Cl)c4[nH]3)c3c(N)ncnc32)CC1,IC50,[3],0.05 µM
same,IC50,mTORC1 [4],< 0.005 µM
same,IC50,[5],0.01 µM
same,IC50,[6],0.1 µM
CO[C@H]1C[C@@H]2CC[C@@H](C)[C@@](O)(O2)C(=O)C(=O)N2CCCC[C@H]2C(=O)O[C@H]([C@H](C)C[C@@H]2CC[C@@H](O)[C@H](OC)C2)CC(=O)[C@H](C)/C=C(\C)[C@@H](O)[C@@H](OC)C(=O)[C@H](C)C[C@H](C)/C=C/C=C/C=C/1C [SIROLIMUS],IC50,DU-145,4 µM
same,IC50,SF-268,2.7 µM
same,IC50,PC-3,1.3 µM
same,IC50,A549,49.4 µM
same,IC50,[14],10 µM
COc1ccc(-c2ccc3c(N4CCOC[C@@H]4C)nc(N4CCOC[C@@H]4C)cc3n2)cc1CO,IC50,[10],< 0.1 µM
CNC(=O)c1cccc(-c2ccc3c(N4CCOC[C@@H]4C)nc(N4CCOC[C@@H]4C)nc3n2)c1,inhibition,mTORC2 (Homo sapiens),73.9%
same,inhibition,mTORC1 [8],87.7%
same,inhibition,mTORC1 [9],83.8%
CO[C@@H]1C[C@@H]2CC[C@@H](C)[C@@](O)(O2)C(=O)C(=O)N2CCCC[C@H]2C(=O)O[C@H]([C@H](C)C[C@@H]2CC[C@@H](OC(=O)C[n+]3csc(C)c3C)[C@H](OC)C2)CC(=O)[C@H](C)/C=C(\C)[C@@H](OC(=O)C[n+]2csc(C)c2C)[C@@H](OC)C(=O)[C@H](C)C[C@H](C)/C=C/C=C/C=C/1C.[Br-].[Br-],solubility,[7],100 mg/mL
same,IC50,A549,6.23 µM
COc1cccc2cc(-c3nn(C4CCOCC4)c4ncnc(N)c34)[nH]c12,IC50,[3],0.01 µM
same,IC50,mTORC1 [4],< 0.005 µM
same,IC50,[5],0.01 µM
same,IC50,[6],0.1 µM
COc1ccc(-c2ccc3c(N4CCOC[C@@H]4C)nc(N4CCOC[C@@H]4C)cc3n2)cc1,IC50,[10],< 0.1 µM
O=c1[nH]c2ncc(-c3ccc(-c4nc[nH]n4)cc3)nc2n1CCC1CCOCC1,IC50,mTORC2 [11],0.04 µM
same,IC50,mTORC1 [4],0.002 µM
same,IC50,[12],0.018 µM
CO[C@@H]1C[C@H](C[C@@H](C)[C@@H]2CC(=O)[C@H](C)/C=C(\C)[C@@H](O)[C@@H](OC)C(=O)[C@H](C)C[C@H](C)/C=C/C=C/C=C(\C)C(OCCO)C[C@@H]3CC[C@@H](C)[C@@](O)(O3)C(=O)C(=O)N3CCCC[C@H]3C(=O)O2)CC[C@H]1OCCCN1CCOC[C@H]1C (stereo partly specified),IC50,mTORC2 [1],> 10 µM
same,IC50,mTORC1 [2],< 0.000316 µM
CO[C@@H]1C[C@H](C[C@@H](C)[C@@H]2CC(=O)[C@H](C)/C=C(\C)[C@@H](O)[C@@H](OC)C(=O)[C@H](C)C[C@H](C)/C=C/C=C/C=C(\C)C(OCCO)C[C@@H]3CC[C@@H](C)[C@@](O)(O3)C(=O)C(=O)N3CCCC[C@H]3C(=O)O2)CC[C@H]1OCCCN1CCOC(C)(C)C1 (stereo partly specified),IC50,mTORC2 [1],> 10 µM
same,IC50,mTORC1 [2],< 0.000316 µM
CC(C)n1nc(-c2cc3cccc(O)c3[nH]2)c2c(N)ncnc21,IC50,[3],0.1 µM
same,IC50,mTORC1 [4],< 0.005 µM
same,IC50,[5],0.1 µM
COc1ccc(-c2ccc3c(N4CCOC[C@@H]4C)cc(N4CCOC[C@@H]4C)nc3n2)cc1,IC50,[10],< 0.1 µM
CN(C)CC(=O)Nc1ccc(-c2ccc3ncc4c(c3c2)n(-c2ccc(C(C)(C)C#N)cc2)c2nncn42)cn1,residual activity,[13],< 5%
CO[C@@H]1C[C@@H]2CC[C@@H](C)[C@@](O)(O2)C(=O)C(=O)N2CCCC[C@H]2C(=O)O[C@H]([C@H](C)C[C@@H]2CC[C@@H](OC(=O)C[n+]3csc(C)c3C)[C@H](OC)C2)CC(=O)[C@H](C)/C=C(\C)[C@@H](O)[C@@H](OC)C(=O)[C@H](C)C[C@H](C)/C=C/C=C/C=C/1C.[Br-],solubility,[7],4.2 mg/mL
same,IC50,A549,7.4 µM
C[C@H]1COCCN1c1nc(N2CCO[C@@H]3CCCC[C@@H]32)nc2nc(-c3cccc(C4=NCC(C)(C)N4)c3)ccc12,inhibition,mTORC2 (Homo sapiens),56.2%
same,inhibition,mTORC1 [8],77.7%
same,inhibition,mTORC1 [9],83.2%
CO[C@@H]1C[C@H](C[C@@H](C)[C@@H]2CC(=O)[C@H](C)/C=C(\C)[C@@H](O)[C@@H](OC)C(=O)[C@H](C)C[C@H](C)/C=C/C=C/C=C(\C)C(OCCO)C[C@@H]3CC[C@@H](C)[C@@](O)(O3)C(=O)C(=O)N3CCCC[C@H]3C(=O)O2)CC[C@H]1OCCCN1CCOC[C@@H]1C (stereo partly specified),IC50,mTORC2 [1],> 10 µM
same,IC50,mTORC1 [2],< 0.000316 µM
CC(C)n1nc(-c2cc3cc(O)cc(F)c3[nH]2)c2c(N)ncnc21,IC50,[3],0.1 µM
same,IC50,mTORC1 [4],< 0.005 µM
same,IC50,[5],0.05 µM
